Bridge positions count the residues as written; N and C are the ends. Peptide text beside a SMILES is read from it.
Legend:
[1] = Inhibition of voltage-gated calcium channel Cav-mediated late-sustained current in Periplaneta americana (American cockroach) DUM neurons assessed as measured at holding potential -80 mV depolarized to +40 mV after 10 min by whole cell patch clamp assay in presence of CdCl2
[2] = Inhibition of voltage-gated calcium channel Cav-mediated fast-transient current in Periplaneta americana (American cockroach) DUM neurons assessed as measured at holding potential -80 mV depolarized to +40 mV after 10 min by whole cell patch clamp assay in presence of CdCl2

Row | SMILES | IC50 [1] | IC50 [2]
1 | CSCC[C@@H]1NC(=O)[C@H](CC(=O)O)NC(=O)[C@H](CCC(=O)O)NC(=O)[C@@H]2CSSC[C@H](NC(=O)[C@@H](N)Cc3ccc(O)cc3)C(=O)N[C@@H](CCC(N)=O)C(=O)N[C@@H](CCCCN)C(=O)N[C@@H](Cc3ccccc3)C(=O)N[C@@H](CC(C)C)C(=O)N[C@@H](Cc3c[nH]c4ccccc34)C(=O)N[C@@H]([C@@H](C)O)C(=O)N[C@H]3CSSC[C@H](NC(=O)[C@H](C(C)C)NC1=O)C(=O)N[C@@H](CCC(=O)O)C(=O)N[C@@H](CC(C)C)C(=O)N[C@@H](Cc1c[nH]c4ccccc14)C(=O)N[C@H](C(=O)N[C@@H](CCCCN)C(=O)N[C@@H](CC(C)C)C(=O)N[C@@H](CCC(=O)O)C(=O)N[C@@H](CCCCN)C(=O)O)CSSC[C@H](NC(=O)[C@H](CCCCN)NC(=O)[C@H](CCCNC(=N)N)NC(=O)[C@H](CCC(=O)O)NC(=O)[C@H]([C@@H](C)O)NC(=O)[C@H](CC(=O)O)NC3=O)C(=O)N2 (H-YCQKFLWTCDTERKCCEDMVCELWCKLEK-OH; disulfide 2-16, 9-21, 15-25) | 3.7 nM | 3.7 nM
2 | CSCC[C@@H]1NC(=O)[C@H](CCCCN)NC(=O)[C@H](Cc2ccccc2)NC(=O)[C@H](CCC(N)=O)NC(=O)[C@@H](NC(=O)[C@@H](N)Cc2ccc(O)cc2)CSSC[C@@H]2NC(=O)[C@@H]3CSSC[C@@H](C(=O)N[C@@H](CCCCN)C(=O)N[C@@H](CC(C)C)C(=O)N[C@@H](CC(N)=O)C(=O)N[C@@H](CC(C)C)C(=O)O)NC(=O)[C@H](Cc4c[nH]c5ccccc45)NC(=O)[C@H](CC(C)C)NC(=O)[C@H](CCCNC(=N)N)NC(=O)[C@H](CSSC[C@H](NC(=O)[C@H]([C@@H](C)O)NC(=O)[C@H](Cc4c[nH]c5ccccc45)NC1=O)C(=O)N[C@@H](CC(=O)O)C(=O)N[C@@H](CO)C(=O)N[C@@H](CCC(=O)O)C(=O)N[C@@H](CCCNC(=N)N)C(=O)N[C@@H](CCCCN)C(=O)N3)NC(=O)[C@H](C(C)C)NC(=O)[C@H](CCSC)NC(=O)[C@H](CC(=O)O)NC(=O)[C@H](CCC(=O)O)NC2=O | 19 nM | 25 nM
3 | CSCC[C@@H]1NC(=O)[C@H](CC(=O)O)NC(=O)[C@H](CCC(=O)O)NC(=O)[C@@H]2CSSC[C@H](NC(=O)[C@@H](N)Cc3ccc(O)cc3)C(=O)N[C@@H](CCC(N)=O)C(=O)N[C@@H](CCCCN)C(=O)N[C@@H](Cc3ccccc3)C(=O)N[C@@H](CC(C)C)C(=O)N[C@@H](Cc3c[nH]c4ccccc34)C(=O)N[C@@H]([C@@H](C)O)C(=O)N[C@H]3CSSC[C@H](NC(=O)[C@H](C(C)C)NC1=O)C(=O)N[C@@H](CCC(=O)O)C(=O)N[C@@H](CC(C)C)C(=O)N[C@@H](Cc1c[nH]c4ccccc14)C(=O)N[C@H](C(=O)N[C@@H](CCCCN)C(=O)N[C@@H](Cc1ccc(O)cc1)C(=O)N[C@@H](CCCCN)C(=O)N[C@@H](CCC(=O)O)C(=O)O)CSSC[C@H](NC(=O)[C@H](CCCCN)NC(=O)[C@H](CCCNC(=N)N)NC(=O)[C@H](CCC(=O)O)NC(=O)[C@H]([C@@H](C)O)NC(=O)[C@H](CC(=O)O)NC3=O)C(=O)N2 (H-YCQKFLWTCDTERKCCEDMVCELWCKYKE-OH; disulfide 2-16, 9-21, 15-25) | 26 nM | 25 nM

Source: BindingDB's records for doi:10.1124/mol.110.070540 (University of Technology Sydney, 2011)
